Where two headings read alike, the source gives them in different places.
What was measured:
[1] = system: RA W264.7 macrophage-like cells; assay: Inhibition of IFNγ-stimulated nitric oxide release (Griess reaction); type: cell-based; conditions: 10 ng/ml IFNγ, 24 hour exposure, read-out: IC50 (nM) Mean ± SE, NO production
Description: Because oxidative and inflammatory stress contribute to carcinogenesis (Albini & Sporn (2007) Nature Rev. Cancer 7:139-147), it was determined whether the pyridine analogues could block de novo synthesis of inducible nitric oxide synthase (iNOS), a critical enzyme involved in the inflammatory response (Kroncke, et al. (1998) Clin. Exp. Immunol. 113:147-156; Zamora, et al. (2000) Mol. Med. 6:347-373). Nitric oxide release was determined in RA W264.7 macrophage-like cells, after stimulation with 10 ng/ml interferon-γ (IFNγ) and a 24 hour-exposure to each compound at 0.625, 1.3, 2.5, 5, 10 and 20 nM. NO release was measured by Griess reaction and compared to CDDO-Im, which is a potent suppressor of iNOS (Place, et al. (2003) Clin. Cancer Res. […]:2798-2806).

[2] = system: U937 leukemia cell line; assay: U937 monocytic differentiation assay (CD11b surface marker, flow cytometry); type: cell-based; conditions: for activity to induce differentiation of U937 cells (in words): 4 days
Description: CDDO-Im 1 is a potent inducer of differentiation in U937 cells (Place, et al. (2003) Clin. Cancer Res. 9:2798-2806). Therefore, the activity of the CDDO-Im analogs was evaluated using the U937 leukemia cell line. CD11b (also known as Mac-1α or CR3 complement receptor) was used as a surface marker of monocytic differentiation, and its expression was measured by flow cytometry after 4 days of treatment with CDDO-Phenyl-Im 2, CDDO-3P-Im 3, CDDO-2P-Im 4, CDDO-4P-Im 5, CDDO-Im 1 (as positive control) or vehicle (DMSO). […] Indeed, the highest level of differentiation was obtained using 100 nM of CDDO-2P-Im (approximately a 4-fold induction of CD11b).

[3] = Stability in human plasma at 37° C. (LC-MS); type: in vitro ADME; conditions: for percent of starting material remaining in plasma: after a 1-hour incubation; for stability in human plasma (in words): up to 6 hours
Description: Since CDDO-Im is not stable in human plasma, the stability of the CDDO-Im analogs was determined. Compounds were incubated in human plasma at 37° C. for up to 6 hours. The compounds were extracted with acetonitrile at six different time points (0, 0.5, 1, 2, 4 and 6 hours), centrifuged, and the percent of starting material remaining in the supernatant was measured by liquid chromatography-mass spectrometry (LC-MS). […] The concentrations then decreased gradually over 6 hours. […] Unexpectedly, the CDDO-Im analogs are metabolized differently from CCDO-Im, as no traces of CDDO were detected with any of the other compounds at any time point. Instead, an oxidized derivative was detected on the chromatogram, in the form of an adduct on the molecule of +16 in MW (N-oxide).

[4] = Tissue distribution after single gavage in C57BL/6 mice (LC-MS); type: in vivo; conditions: for bioavailability / drug levels in organs (in words): compared with CDDO-Im 1; for Compound Concentration Mean ± SE, Kidney / Compound Concentration Mean ± SE, Liver / Compound Concentration Mean ± SE, Lungs / Compound Concentration Mean ± SE, Pancreas / Compound Concentration Mean ± SE, Plasma / Compound Concentration Mean ± SE, Whole Blood: six hours after single gavage with 1 μmole
Description: To determine concentrations of the CDDO-Im analogs in various organs, an in vivo evaluation was conducted in C57BL/6 mice. Six hours after a single gavage with 1 μmole of compound, the mice were sacrificed and the tissues were collected.

[5] = system: HO-1; assay: Induction of HO-1 mRNA in mouse liver, kidney and lung (real-time PCR); type: in vivo, mice; conditions: for HO-1 level relative to CDDO-Im / HO-1 mRNA fold induction compared to the vehicle control: liver; for HO-1 mRNA fold induction compared to the vehicle control: six hours after gavage with 1 μmole; for HO-1 induction (in words): kidney
Text: (§1) FIG. 2A and FIG. 2B show the induction of cytoprotective enzyme expression in mouse liver, kidney and lung. CB57BL/6 mice were gavaged with 1 μmole of each triterpenoid. Six hours later, organs were harvested, RNA was extracted, and mRNA levels for HO-1 (FIG. 2A) and NQO1 (FIG. 2B) were quantified by real-time PCR analysis. Results are presented as the fold induction for each compound compared to the vehicle (DMSO) control. Data are presented as mean±SE of six mice per group.
Synthetic triterpenoids such as CDDO-Im strongly activate the Nrf2/ARE pathway; Nrf2 is a transcription factor that regulates numerous cytoprotective and anti-inflammatory genes (Liby, et al. (2005) Cancer Res. 65:4789-98; Yates, et al. (2007) Mol. Cancer Therapeut. 6:154-62). Therefore, the ability of the new pyridine compounds to induce transcription of the Nrf2 target genes HO-1 and NQ01 in vivo was assessed. […] In the liver, CDDO-3P-Im and CDDO-2P-Im induced high levels of HO-1, which were about 3 times more elevated than with CDDO-Im (13.4- and 15.2-fold, respectively vs. 4.9-fold for CDDO-Im). […] The results obtained in lungs were, on the other hand, unexpected.

[6] = system: U937 cells; assay: Apoptosis in U937 cells (annexin V staining); type: cell-based; conditions: U937 cells treated for 48 hours
[7] = system: NQO1; assay: Induction of NQO1 mRNA in mouse liver, kidney and lung (real-time PCR); type: in vivo, mice
Text: as §1
Because HO-1 is regulated by transcription factors in addition to Nrf2 (Alam, et al. (1999) J. Biol. Chem. 274:26071-8; Kensler, et al. (2007) Ann. Rev. Pharmacol. Toxicol. 47:89-116), induction of the prototypical Nrf2 target gene NQO1 was also examined.

[8] = 30 nM, compared with CDDO-Im and CDDO-3P-Im
[9] = six hours after gavage with 1 μmole
[10] = six hours after gavage with 1 μmole, read-out: concentration in the pancreas
[11] = 30 nM, 4 days of treatment, U937 cells

Structure (SMILES)	IC50 [1]	activity to induce differentiation of U937 cells (in words) [2, 8]	activity to induce differentiation of U937 cells (in words) ([2]; 100 nM)	percent of starting material remaining in plasma ([3]; 37° C.)	stability in human plasma (in words) ([3]; 37° C.)	bioavailability / drug levels in organs (in words) [4]	concentration in the liver [4, 9]	drug levels in the lungs [4, 9]	concentration at 6 h [4, 10]	Compound Concentration Mean ± SE, Kidney [4]	Compound Concentration Mean ± SE, Liver [4]	Compound Concentration Mean ± SE, Lungs [4]	Compound Concentration Mean ± SE, Pancreas [4]	Compound Concentration Mean ± SE, Plasma [4]	Compound Concentration Mean ± SE, Whole Blood [4]	HO-1 level relative to CDDO-Im ([5]; six hours after gavage)	HO-1 mRNA fold induction compared to the vehicle control [5]	induction of CD11b expression compared to the DMSO-treated cells [2, 11]	cell death in the differentiation assay ([2]; 100 nM)	annexin V staining, a marker of early apoptosis [6]	further results
CC1(C)CCC2(C(=O)n3cnc(-c4ccccn4)c3)CCC3(C)C(C(=O)C=C4C5(C)C=C(C#N)C(=O)C(C)(C)C5CCC43C)C2C1 (stereo not drawn) [CDDO-2P-Im 4]	5.8 ± 1.1 nM	less active	enhanced the activity	more than 85%	the most stable analog	better than for CDDO-Im 1	12000 to 15000 nM	greater than 2.5 μM	3500 nM	3.70 ± 0.55 µmol/kg	14.9 ± 2.58 µmol/kg	2.63 ± 0.41 µmol/kg	3.55 ± 0.39 µmol/kg	0.52 ± 0.02 µmol/kg	0.53 ± 0.02 µmol/kg	about 3 times	15.2 fold	–	–	–	induction of CD11b ([2]; 100 nM, 4 days of treatment, U937 cells): ~4 fold; percent left in plasma ([3]; after 4 hours, 37° C.): more than 50%
CC1(C)CCC2(C(=O)n3cnc(-c4cccnc4)c3)CCC3(C)C(C(=O)C=C4C5(C)C=C(C#N)C(=O)C(C)(C)C5CCC43C)C2C1 (stereo not drawn) [CDDO-3P-Im 3]	4.3 nM	–	–	–	more stable than CDDO-Im	better than for CDDO-Im 1	–	greater than 2.5 μM	2500 nM	1.47 ± 0.24 µmol/kg	5.9 ± 0.57 µmol/kg	2.49 ± 0.44 µmol/kg	2.52 ± 0.24 µmol/kg	0.15 ± 0.04 µmol/kg	0.16 ± 0.02 µmol/kg	about 3 times	13.4 fold	~3 fold	induced cell death	increased annexin V staining	–
CC1(C)CCC2(C(=O)n3cnc(-c4ccncc4)c3)CCC3(C)C(C(=O)C=C4C5(C)C=C(C#N)C(=O)C(C)(C)C5CCC43C)C2C1 (stereo not drawn) [CDDO-4P-Im 5]	9 ± 0.6 nM	less active	enhanced the activity	42%	more stable than CDDO-Im	–	–	–	–	0.35 ± 0.06 µmol/kg	2.8 ± 0.47 µmol/kg	0.17 ± 0.05 µmol/kg	0.30 ± 0.04 µmol/kg	0.03 ± 0.01 µmol/kg	0.04 ± 0.1 µmol/kg	–	–	–	–	–	HO-1 induction (in words) [5]: less potent than CDDO-Im; HO-1 transcript level relative to CDDO-Im or any of the other compounds ([5]; lungs, six hours after gavage): about 3 times
CC1(C)CCC2(C(=O)n3ccnc3)CCC3(C)C(C(=O)C=C4C5(C)C=C(C#N)C(=O)C(C)(C)C5CCC43C)C2C1 (stereo not drawn) [CDDO-Im 1, 1-(2-cyano-3,12-dioxooleana-1,9(11)-dien-28-oyl) imidazole, reference compound]	–	–	–	–	rapidly metabolized	–	–	–	–	0.24 ± 0.08 µmol/kg	1.7 ± 0.32 µmol/kg	0.19 ± 0.05 µmol/kg	0.31 ± 0.09 µmol/kg	0.06 ± 0.02 µmol/kg	0.03 ± 0.01 µmol/kg	–	–	~3 fold	induced cell death	increased annexin V staining	IC50 ([1]; Mus musculus, RAW264.7): 2 nM; transformation product in human plasma (in words) ([3]; LC-MS, all time points): essentially converted to its parent molecule; percent of compound lost in human plasma ([3]; within 30 minutes, 37° C.): more than 88%; percent of compound lost in human plasma ([3]; within the next 5 hours (6 hour incubation), 37° C.): 98%; rank of NQO1 mRNA induction (in words) ([7]; liver and kidney): the most potent compound; concentration at 6 h ([4]; C57BL/6, mouse, liver, oral, six hours after gavage with 1 μmole, read-out: concentration in the liver): 1700 nM; concentration at 6 h ([4]; C57BL/6, mouse, lung, oral, six hours after gavage with 1 μmole, read-out: drug levels in the lungs): 200 nM; concentration at 6 h ([4]; C57BL/6, mouse, pancreas, oral, six hours after gavage with 1 μmole, read-out: concentration in the pancreas): ~300 nM
CC1(C)CCC2(C(=O)n3cnc(-c4ccccc4)c3)CCC3(C)C(C(=O)C=C4C5(C)C=C(C#N)C(=O)C(C)(C)C5CCC43C)C2C1 (stereo not drawn) [CDDO-Phenyl-Im 2]	14.7 nM	less active	–	–	more stable than CDDO-Im	better than for CDDO-Im 1	12000 to 15000 nM	–	2000 nM	5.79 ± 0.25 µmol/kg	12.2 ± 1.27 µmol/kg	1.28 ± 0.17 µmol/kg	1.97 ± 0.19 µmol/kg	0.12 ± 0.01 µmol/kg	0.35 ± 0.03 µmol/kg	–	–	–	–	–	NQO1 mRNA induction (in words) ([7]; liver, compared with CDDO-Im): markedly less potent than CDDO-Im; concentration in kidneys [4, 9]: 5800 nM; HO-1 induction (in words) [5]: markedly less potent
